Assay results: patent US20100063009A1, “Pharmaceutical Combination Comprising 6-Dimethylaminomethyl-1-(3-methoxy-phenyl)-cyclohexane-1.3-diol and an NSAID” (GRUENENTHAL GmbH, priority 2008, published 2010)
Values joined by “and” are separate entries in the source; they are usually repeats but may differ in a detail not shown here. Equal values may be shown once. Where a name gives a salt, the structure may show the parent alone. Read-outs that look alike come from different tables or passages of the source.

System: inflamed rat hind paw
Experiment: Randall-Selitto test in rats (carrageenan-induced inflammatory pain, mechanical nociceptive threshold)
Assay type: in vivo
Conditions: for ED50: Rattus norvegicus; for timepoint of peak effect: substance applied alone, A i.v., NSAIDs i.p.
Experimental: The weight ratios of the components (a) and (b) that will lead to a supra-additive effect (synergistic effect) of the inventive pharmaceutical composition may be determined via the test of Randall and Selitto as described in Arch. Int. Pharmacodyn., 1957, 111: 409 to 419, which is a model for inflammatory pain. The respective part of the literature is hereby incorporated by reference and forms part of the present disclosure.
Acute inflammation is induced by an intraplantar injection of 0.1 ml of a carrageenan solution (0.5% in distilled water) into one hind paw. The mechanical nociceptive threshold is measured 4 hours after carrageenan injection using an Algesiometer (Ugo Basile, Italy). The device generates a mechanical force with a linear increase over time. The force is applied to the dorsal surface of the inflamed rat hind paw via a cone-shaped stylus with a rounded tip (2 mm tip diameter). The nociceptive threshold is defined as the force (in grams) at which the rat vocalises (cut-off force 250 g). The mechanical nociceptive threshold is measured at different timepoints after the drug or vehicle administration. The antinociceptive and antihyperalgesic activity of the tested substance is expressed as percentages of the maximal possible effect (% MPE). The group size is n=10.
The interactions studies presented herein were performed using equieffective doses of the two components, calculated from the ratio of the respective ED50 values of the components if administered alone.
The route of administration was intravenous (i.v.) for (1RS,3RS,6RS)-6-dimethylaminomethyl-1-(3-methoxy-phenyl)-cyclohexane-1,3-diol hydrochloride (A) and intraperitoneal (i.p.) for the NSAIDs diclofenac, ibuprofen, metamizol-sodium and naproxen. […] (diclofenac, ibuprofen) and 45 min p. appl. (naproxen, metamizol-sodium).

[1] = ip, measured at peak effect 30 min (diclofenac, ibuprofen) or 45 min (naproxen, metamizol-sodium) p. appl., n=10, read-out: ED50 of the NSAID applied alone

Structure (SMILES)	ED50 (iv, measured at peak effect 15 min p. appl., 4 h after carrageenan, % MPE, n=10, 95% range in brackets, read-out: ED50 of A applied alone) [mg/kg]	ED50 of A applied alone (i.v., measured at peak effect 15 min p. appl., 4 h after carrageenan, % MPE, n=10, 95% range in brackets, hydrochloride)	timepoint of peak effect [min p. appl.]	ED50 [1] [mg/kg]	ED50 of the NSAID applied alone (i.p., measured at peak effect 30 min (diclofenac, ibuprofen) or 45 min (naproxen, metamizol-sodium) p. appl., n=10)
COc1cccc([C@@]2(O)C[C@H](O)CC[C@@H]2CN(C)C)c1 (racemic) [A, (1RS,3RS,6RS)-6-dimethylaminomethyl-1-(3-methoxy-phenyl)-cyclohexane-1,3-diol hydrochloride]	15.8	14.5 (13.3-15.6) mg/kg and 14.1 (13.2-15.1) mg/kg	15	–	–
O=C(O)Cc1ccccc1Nc1c(Cl)cccc1Cl [Diclofenac, diclofenac]	–	–	30	146	–
CC(C)Cc1ccc(C(C)C(=O)O)cc1 (centres unmarked) [Ibuprofen]	–	–	30	139	–
Cc1c(N(C)CS(=O)(=O)[O-])c(=O)n(-c2ccccc2)n1C.[Na+] [Metamizol-Sodium, metamizol-sodium]	–	–	45	–	88.1 (77.5-98.3) mg/kg
COc1ccc2cc([C@H](C)C(=O)O)ccc2c1 [Naproxen, naproxen]	–	–	45	164	–
